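Method: 48-hour compound exposure of cells in 96-well plates, five concentrations, linear interpolation of endpoints. The concentration for 50% growth inhibition is given as GI50.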 Active and inactive are the calls of the source. Rule as the data show it: active = GI50 up to about 1.1 µM and inactive = higher.
How the values were obtained:
Test in all cases: inhibition of tumour cell growth, NCI panel, 48 h
MDA-N = test system: MDA-N
U-251 = test system: U-251
OVCAR-3 = test system: OVCAR-3
SK-MEL-28 = test system: SK-MEL-28
HT-29 = test system: HT-29
OVCAR-4 = test system: OVCAR-4
SN12C = test system: SN12C
SW-620 = test system: SW-620
ACHN = test system: ACHN
NCI-H460 = test system: NCI-H460
Hs-578T = test system: Hs-578T
UO-31 = test system: UO-31
CCRF-CEM = test system: CCRF-CEM
M14 = test system: M14
UACC-62 = test system: UACC-62
TK-10 = test system: TK-10
SNB-75 = test system: SNB-75
MCF7 = test system: MCF7
HCT-116 = test system: HCT-116
RXF 393 = test system: RXF 393
T47D = test system: T47D
NCI-H226 = test system: NCI-H226
IGROV-1 = test system: IGROV-1
786-0 = test system: 786-0
SF-539 = test system: SF-539
SK-MEL-5 = test system: SK-MEL-5
KM12 = test system: KM12
MDA-MB-231 = test system: MDA-MB-231
A498 = test system: A498
SF-268 = test system: SF-268
NCI-H522 = test system: NCI-H522
BT-549 = test system: BT-549
K562 = test system: K562
MOLT-4 = test system: MOLT-4
NCI-H23 = test system: NCI-H23
PC-3 = test system: PC-3
CAKI-1 = test system: CAKI-1
Malme-3M = test system: Malme-3M
NCI/ADR-RES = test system: NCI/ADR-RES
HOP-62 = test system: HOP-62
A549 = test system: A549
RPMI-8226 = test system: RPMI-8226
COLO 205 = test system: COLO 205
OVCAR-8 = test system: OVCAR-8
SK-MEL-2 = test system: SK-MEL-2
HOP-92 = test system: HOP-92
HCT-15 = test system: HCT-15
SK-OV-3 = test system: SK-OV-3
HCC 2998 = test system: HCC 2998
MDA-MB-435 = test system: MDA-MB-435
DU-145 = test system: DU-145
UACC-257 = test system: UACC-257
SF-295 = test system: SF-295
OVCAR-5 = test system: OVCAR-5
LOX IMVI = test system: LOX IMVI
HL-60 = test system: HL-60
EKVX = test system: EKVX
SNB-19 = test system: SNB-19

## Cn1ccnc1SC(F)(F)c1nc2ccccc2o1
MDA-N
  GI50: > 100 µM (inactive)
U-251
  GI50: > 100 µM (inactive)
OVCAR-3
  GI50: > 100 µM (inactive)
SK-MEL-28
  GI50: > 100 µM (inactive)
HT-29
  GI50: > 100 µM (inactive)
OVCAR-4
  GI50: > 100 µM (inactive)
SN12C
  GI50: > 100 µM (inactive)
SW-620
  GI50: > 100 µM (inactive)
ACHN
  GI50: > 100 µM (inactive)
NCI-H460
  GI50: > 100 µM (inactive)
Hs-578T
  GI50: > 100 µM (inactive)
UO-31
  GI50: > 100 µM (inactive)
CCRF-CEM
  GI50: > 100 µM (inactive)
M14
  GI50: > 100 µM (inactive)
UACC-62
  GI50: > 100 µM (inactive)
TK-10
  GI50: > 100 µM (inactive)
SNB-75
  GI50: 43 nM (active)
MCF7
  GI50: > 100 µM (inactive)
HCT-116
  GI50: > 100 µM (inactive)
RXF 393
  GI50: > 100 µM (inactive)
T47D
  GI50: > 100 µM (inactive)
NCI-H226
  GI50: > 100 µM (inactive)
IGROV-1
  GI50: > 100 µM (inactive)
786-0
  GI50: > 100 µM (inactive)
SF-539
  GI50: > 100 µM (inactive)
SK-MEL-5
  GI50: > 100 µM (inactive)
KM12
  GI50: > 100 µM (inactive)
MDA-MB-231
  GI50: > 100 µM (inactive)
A498
  GI50: > 100 µM (inactive)
SF-268
  GI50: > 100 µM (inactive)
NCI-H522
  GI50: > 100 µM (inactive)
BT-549
  GI50: 46.5 µM (inactive)
K562
  GI50: > 100 µM (inactive)
MOLT-4
  GI50: > 100 µM (inactive)
NCI-H23
  GI50: > 100 µM (inactive)
PC-3
  GI50: > 100 µM (inactive)
CAKI-1
  GI50: > 100 µM (inactive)
Malme-3M
  GI50: > 100 µM (inactive)
NCI/ADR-RES
  GI50: > 100 µM (inactive)
HOP-62
  GI50: > 100 µM (inactive)
A549
  GI50: > 100 µM (inactive)
RPMI-8226
  GI50: > 100 µM (inactive)
COLO 205
  GI50: > 100 µM (inactive)
OVCAR-8
  GI50: > 100 µM (inactive)
SK-MEL-2
  GI50: > 100 µM (inactive)
HOP-92
  GI50: > 100 µM (inactive)
HCT-15
  GI50: > 100 µM
SK-OV-3
  GI50: > 100 µM (inactive)
HCC 2998
  GI50: > 100 µM (inactive)
MDA-MB-435
  GI50: > 100 µM (inactive)
DU-145
  GI50: > 100 µM (inactive)
UACC-257
  GI50: > 100 µM (inactive)
SF-295
  GI50: > 100 µM (inactive)
OVCAR-5
  GI50: > 100 µM (inactive)

## C/C=C/C1OC(O)(C(C)C(O)[C@H](C)C2OC(=O)/C(OC)=C/C(C)=C/[C@@H](C)[C@@H](O)[C@@H](C)C(O)C(C)C/C(C)=C/C=C/C2OC)C[C@@H](OC2CC(O)C(OC(N)=O)C(C)O2)C1C (stereo not given in full)
MDA-N
  GI50: < 0.01 µM (active)
U-251
  GI50: < 0.0167 µM (active)
OVCAR-3
  GI50: < 0.0182 µM (active)
SK-MEL-28
  GI50: 1.45 µM (inactive)
HT-29
  GI50: < 0.01 µM (active)
OVCAR-4
  GI50: 3.04 µM (inactive)
SN12C
  GI50: < 0.01 µM (active)
SW-620
  GI50: < 0.01 µM (active)
ACHN
  GI50: < 0.01 µM (active)
NCI-H460
  GI50: < 0.01 µM (active)
LOX IMVI
  GI50: < 10 nM (active)
HL-60
  GI50: < 10 nM (active)
Hs-578T
  GI50: 0.889 µM (active)
UO-31
  GI50: < 0.01 µM (active)
CCRF-CEM
  GI50: < 0.01 µM (active)
M14
  GI50: < 0.01 µM (active)
UACC-62
  GI50: < 0.01 µM (active)
TK-10
  GI50: < 0.01 µM (active)
SNB-75
  GI50: < 10 nM (active)
MCF7
  GI50: < 0.01 µM (active)
HCT-116
  GI50: < 0.01 µM (active)
T47D
  GI50: < 0.01 µM (active)
NCI-H226
  GI50: < 0.01 µM (active)
IGROV-1
  GI50: < 0.01 µM (active)
786-0
  GI50: < 0.01 µM (active)
SF-539
  GI50: < 0.01 µM (active)
SK-MEL-5
  GI50: < 0.01 µM (active)
EKVX
  GI50: < 10 nM (active)
KM12
  GI50: < 0.01 µM (active)
MDA-MB-231
  GI50: < 0.01 µM (active)
A498
  GI50: 0.131 µM (active)
SF-268
  GI50: < 0.01 µM (active)
NCI-H522
  GI50: < 0.01 µM (active)
BT-549
  GI50: < 0.01 µM (active)
K562
  GI50: < 0.01 µM (active)
MOLT-4
  GI50: < 0.01 µM (active)
NCI-H23
  GI50: < 0.01 µM (active)
PC-3
  GI50: < 0.01 µM (active)
CAKI-1
  GI50: < 0.01 µM (active)
Malme-3M
  GI50: < 0.01 µM (active)
NCI/ADR-RES
  GI50: < 0.0127 µM (active)
HOP-62
  GI50: < 0.01 µM (active)
A549
  GI50: < 0.01 µM (active)
RPMI-8226
  GI50: < 0.01 µM (active)
COLO 205
  GI50: < 0.01 µM (active)
OVCAR-8
  GI50: < 0.01 µM (active)
SK-MEL-2
  GI50: < 0.01 µM (active)
HOP-92
  GI50: < 0.01 µM (active)
HCT-15
  GI50: < 0.01 µM
SK-OV-3
  GI50: 2.47 µM (inactive)
HCC 2998
  GI50: < 0.01 µM (active)
MDA-MB-435
  GI50: < 0.01 µM (active)
DU-145
  GI50: < 0.01 µM (active)
UACC-257
  GI50: < 0.01 µM (active)
SF-295
  GI50: < 0.01 µM (active)
SNB-19
  GI50: < 10 nM (active)
